This data set can be described thus: Human HepG2 cell viability assay in 384 well format. Type of data set: toxicity, cell-based. Also noted: dose 125 nL, time 70.5 hour; cytotoxicity at 70.5 h: concentration not given beside the values. As to conditions: HepG2 cells, read-out: Inhibition.
Consider `O=C(CCc1nc2cccnc2[nH]1)NCc1ccc2c(c1)OCO2`, for which the cytotoxicity at 70.5 h was -9.32%.

Turning to `COc1ccc(C(=O)N2CCN3C(=O)CNC(=O)[C@@H]3C2)cc1`, the cytotoxicity at 70.5 h was 12.5%.

As to `O=C(C1CCOC1)N1C[C@H]2CN(Cc3cccc(F)c3)C(=O)[C@H]2C1` (some centres undefined), the cytotoxicity at 70.5 h was -0.77%.

Turning to `Cc1nccn1-c1cc(CNC(=O)NCC2CCCO2)ccn1` (centres undefined), the cytotoxicity at 70.5 h was -0.7%.

As for `O=C(c1ccccc1OC1CCCC1)N1CCCC(n2cncn2)C1` (centres undefined), the cytotoxicity at 70.5 h was -9.06%.

Regarding `Cc1cnn(CC2CCCN2Cc2nnc(C3CC3)o2)c1` (centres undefined), the cytotoxicity at 70.5 h worked out at 13.5%.

As for `CSCc1noc(Cn2ncn3cccc3c2=O)n1`, the cytotoxicity at 70.5 h is -3.25%.

`COc1ccc2c3c1CN(C(C)=O)CC3=CC(C)(C)CO2`: the cytotoxicity at 70.5 h amounted to 0.846%.

For the molecule `CC1=C(c2ccc(F)cc2)S(=O)(=O)N=C1N1CCc2ccccc21`, the cytotoxicity at 70.5 h was -4.74%.

For the molecule `CC(=O)N1CCCC2(C1)CN(C(=O)c1ccncc1)CCO2` (centres undefined), the cytotoxicity at 70.5 h is -15.7%.

As for `Cc1ccc(Oc2cc(F)ccc2O[C@@H]2CCC[C@@H](N)[C@H]2O)cc1`, the cytotoxicity at 70.5 h came to 16%.

As for `Cc1cc(CN(C)C2CCCN(Cc3noc(C4CC4)n3)C2)on1` (centres undefined), the cytotoxicity at 70.5 h was -9.71%.

In the case of `CNC(=O)C(NC(=O)CCc1cccc(OC2CCCC2)c1)C(C)C` (centres undefined), the cytotoxicity at 70.5 h came out at 6.19%.

Regarding `Cc1ccc(CN2CC[C@H]3OCC[C@@H](c4nc(C)no4)[C@H]3C2)cc1`, the cytotoxicity at 70.5 h was -11.4%.

Consider `CCn1cc(NC(=O)c2cccc(OCC(F)(F)F)n2)cn1`, for which the cytotoxicity at 70.5 h was -7.52%.

On to `O=S(=O)(c1c(Cl)nc2sccn12)N1CCCC2(CCNC2)C1` (centres undefined), for which the cytotoxicity at 70.5 h is -7.18%.

As to `CC(C)N1CCC(c2n[nH]cc2-c2ccnc(N)c2)C1` (centres undefined), the cytotoxicity at 70.5 h turned out to be 2.17%.

As to `O=C(c1coc2ccccc12)N1CCCC1`, the cytotoxicity at 70.5 h was -9.29%.

Turning to `Cc1cccc(NC(=O)Nc2c[nH]c(=O)[nH]c2=O)c1C`, the cytotoxicity at 70.5 h was -1.56%.

Regarding `Cc1oc(-c2cccc(F)c2)nc1CN1CCOCS1(=O)=O`, the cytotoxicity at 70.5 h was -11.9%.

`COCC1CN(Cc2c(C)noc2C)Cc2cn(C)nc21` (centres undefined): the cytotoxicity at 70.5 h was determined as 10.9%.

Consider `CC(C)(C)CC(=O)N1CCC(c2nn(CCN)c3nccnc23)C1` (centres undefined), for which the cytotoxicity at 70.5 h is -4.08%.

As for `CCn1ncnc1C1CC(=O)NCc2nc(N3CCOCC3)sc21` (centres undefined), the cytotoxicity at 70.5 h was -20.5%.

For `Cn1ccnc1CN1CCC2(CC1)CCN(c1cncnc1)C2=O`, the cytotoxicity at 70.5 h is -3.96%.

Turning to `c1cc(CN2CCC3(CC2)CC(N2CCCC2)CO3)co1` (centres undefined), the cytotoxicity at 70.5 h is -5.63%.

Take `c1cncc(OCc2noc3c2CN(Cc2ccoc2)CC3)c1`: the cytotoxicity at 70.5 h is -15.9%.

Consider `COc1ccccc1CN1CC[C@H]2C[C@H](C(=O)N3CCCC3)O[C@H]2C1`, for which the cytotoxicity at 70.5 h was found to be 15.4%.

Regarding `c1cc(-c2ccc3c(c2)CCC32CCNCC2)ccn1`, the cytotoxicity at 70.5 h is 26.1%.

Take `CC1CCC(NCCNC(=O)c2cccs2)CC1` (centres undefined): the cytotoxicity at 70.5 h is -7.09%.

In the case of `N[C@@H](Cc1c[nH]cn1)C(=O)N1CCC(Oc2ccc(Cl)cc2)CC1`, the cytotoxicity at 70.5 h amounted to 28.2%.

Take `CCC(C)C(=O)NCc1cc(Br)c(OC)c(OC)c1` (centres undefined): the cytotoxicity at 70.5 h was -6.76%.

For `CC(NCc1ccsc1)c1ccc2c(c1)NC(=O)CO2` (centres undefined), the cytotoxicity at 70.5 h was -13.9%.

Regarding `Cc1nnc(C2Cc3ccccc3CN2Cc2nc(C3CC3)no2)o1` (centres undefined), the cytotoxicity at 70.5 h is -5.34%.

`CC(=O)N1CCC(C(=O)NCCc2c[nH]c3cc(C)ccc23)CC1`: the cytotoxicity at 70.5 h stood at 16.1%.

`CC(NC(=O)c1cccnc1N(C)C)c1ccccc1Br` (centres undefined): the cytotoxicity at 70.5 h came out at 20.1%.

For the molecule `Cc1nc(CC2CCCN(Cc3nc(N)c4ccccc4n3)C2)no1` (centres undefined), the cytotoxicity at 70.5 h was -7.12%.

On to `CC(C)c1cc(C(=O)NCc2nc(-c3ccc(F)cc3)n[nH]2)n[nH]1`, for which the cytotoxicity at 70.5 h was found to be 12.6%.

For the molecule `CCn1ccc(C(=O)N2CCOC(c3nc(-c4cccs4)no3)C2)n1` (centres undefined), the cytotoxicity at 70.5 h is -4.33%.

Consider `Cc1cccc(N(C)Cc2nc3c(cnn3C)c(=O)[nH]2)c1C`, for which the cytotoxicity at 70.5 h is -10%.

For the molecule `CC(C)COC(C)C(=O)NCCNC(=O)C(C)C` (centres undefined), the cytotoxicity at 70.5 h is -1.79%.

As to `COc1nc2c(cc1C(=O)N1C[C@H](N)C[C@H]1C(=O)NC(C)C)CCC2`, the cytotoxicity at 70.5 h is -4.1%.

`Cc1ccnc(NC(=O)c2cc(C)oc2C)c1`: the cytotoxicity at 70.5 h is 4.63%.

For the molecule `Cc1cc(CN2CCN(C(=O)CCc3ccco3)CC2)on1`, the cytotoxicity at 70.5 h is -9.48%.

Turning to `COc1cccc(C(=O)N2CCCCC2c2nccs2)c1OC` (centres undefined), the cytotoxicity at 70.5 h was determined as 2.23%.

In the case of `Cc1occc1C(=O)NCC(=O)NCCCOc1ccc(F)cc1`, the cytotoxicity at 70.5 h was -17.7%.

For the molecule `O=C(c1ncccn1)N1C[C@H]2CCC[C@@]2(COc2ccccn2)C1`, the cytotoxicity at 70.5 h is -6.17%.

For `CS(=O)(=O)N1C[C@H]2CN(CC3CC3)C(=O)[C@H]2C1`, the cytotoxicity at 70.5 h is -2.81%.

For `CC(C)Cc1cc(-c2cc(-c3ccc[nH]3)nc(N)c2C#N)n[nH]1`, the cytotoxicity at 70.5 h stood at 21.1%.

Take `Cc1cc(C)c2c(c1)C(CC(=O)O)C(=O)N2` (centres undefined): the cytotoxicity at 70.5 h worked out at 24.2%.

As for `CC(C)=CCN1C[C@H]2CC[C@@H]1CN(Cc1coc(C)n1)C2`, the cytotoxicity at 70.5 h is -5.37%.

As to `CC(C)CCN(C(=O)CCn1cc(S(N)(=O)=O)cn1)C1CC1`, the cytotoxicity at 70.5 h was -1.68%.

With `CN(CC(N)=O)C(=O)c1cnc(-c2ccc(Cl)s2)s1`, the cytotoxicity at 70.5 h was -4.25%.

`Cc1cc(C(F)(F)F)nc(CNc2nc(C)nc3c2cnn3C)n1`: the cytotoxicity at 70.5 h was -7.38%.

For the molecule `CNC(=O)C1(C)CN(c2nc(C)cc(C)n2)CCO1` (centres undefined), the cytotoxicity at 70.5 h worked out at 1.44%.

As to `CCc1nc(C2CCCN2C(=O)CCc2cccs2)no1` (centres undefined), the cytotoxicity at 70.5 h is -5.42%.

Regarding `CC(=O)c1c(F)cccc1NC1CCN(S(=O)(=O)C2CC2)CC1`, the cytotoxicity at 70.5 h is -6.69%.

Regarding `CN(CC(=O)NCC(F)(F)F)C(=O)c1ccc(=O)[nH]c1`, the cytotoxicity at 70.5 h was -8.21%.

As to `CCn1ncc(Nc2[nH]cnc3nncc2-3)c1C`, the cytotoxicity at 70.5 h is -3.49%.

As for `Cc1ccc(C(=O)NC2CCCN(c3ncccn3)C2)cn1` (centres undefined), the cytotoxicity at 70.5 h was 19.3%.

For `CCc1n[nH]c(C2CN(C(=O)CCn3ccccc3=O)CCO2)n1` (centres undefined), the cytotoxicity at 70.5 h is -2.35%.

Take `O=C1N[C@@H]2CCN(C(=O)C3CC3)[C@@H]2C(=O)N1c1ccc(F)cc1`: the cytotoxicity at 70.5 h was -13.5%.

`CC(C)n1nc2c(cc1=O)CN(CCOc1cccc(C#N)c1)CC2`: the cytotoxicity at 70.5 h was -8.86%.

On to `N#CCCNC(=O)CSc1cc(F)ccc1F`, for which the cytotoxicity at 70.5 h is -9.07%.

Take `CN1CCC(CNC(=O)NCc2ccc(F)cc2)CC1`: the cytotoxicity at 70.5 h is -1.23%.

As for `CSCCC(NC(=O)c1nc(SC)ncc1Cl)C(=O)O` (centres undefined), the cytotoxicity at 70.5 h was -0.19%.

Consider `O=C(c1c[nH]cn1)N1CCC(F)(F)C2(CCN(c3ccccn3)C2)C1` (centres undefined), for which the cytotoxicity at 70.5 h is -4.42%.

In the case of `CCN(CC)C(CNS(=O)(=O)c1ccc(C(C)=O)cc1)c1ccco1` (centres undefined), the cytotoxicity at 70.5 h was -3.55%.

Take `CC(=O)c1cc(CC(=O)N2CCN(CCOc3ccccc3)CC2)cs1`: the cytotoxicity at 70.5 h was -1.31%.

As to `Cc1cc(=O)[nH]c(NCCNC(=O)CN2CCCCCC2)n1`, the cytotoxicity at 70.5 h stood at 15.9%.

With `CCC1CCCN(C(=O)Cc2csc(-c3ncccn3)n2)C1` (centres undefined), the cytotoxicity at 70.5 h came to 36.3%.

On to `CCOC(=O)N1[C@@H](c2ccco2)[C@@H](C(=O)NC)C[C@]12CCCCNC2=O`, for which the cytotoxicity at 70.5 h is 15.2%.

For the molecule `O=C(Cc1cccnc1)N1CCCC(c2cc(C(F)(F)F)[nH]n2)C1` (centres undefined), the cytotoxicity at 70.5 h was -2.42%.

With `COCC(=O)NCc1cccc(OCCN(C)C2CCOCC2)c1`, the cytotoxicity at 70.5 h is -0.957%.

Take `Cc1ccc(OC(C)CNC(=O)c2c[nH]nn2)cc1` (centres undefined): the cytotoxicity at 70.5 h was -7.76%.

For `Cc1ccc(C(=O)N2CCC3(CC2)CC(N2CCOCC2)C3)cc1`, the cytotoxicity at 70.5 h is -12.7%.

For the molecule `CNc1ccc(C2CN(c3cc(C)ncn3)CCO2)nc1` (centres undefined), the cytotoxicity at 70.5 h is 1.5%.

`Cc1ccc(CNCC2Cn3nncc3CO2)s1` (centres undefined): the cytotoxicity at 70.5 h was -4.83%.

For the molecule `Cc1cc(C)c(S(N)(=O)=O)cc1C(=O)NCC1Cc2ccccc2O1` (centres undefined), the cytotoxicity at 70.5 h was -5.64%.

With `CC(C)(C)OCC1CN(Cc2cccs2)S(=O)(=O)c2cnccc2O1` (centres undefined), the cytotoxicity at 70.5 h was -2.07%.

In the case of `Cc1ccc(-n2nnc(CC(=O)N3CCN(C(C)C)CC3)c2C)cc1`, the cytotoxicity at 70.5 h was -10.5%.

With `O=C(COc1cccc2c1CCC2=O)NCc1ccccc1Cl`, the cytotoxicity at 70.5 h was -10.6%.

Take `COc1ccccc1C1(NCc2c(C)nc3c(C)cccn23)CCCC1`: the cytotoxicity at 70.5 h came out at 24.9%.

On to `O=C(c1cncnc1)N1Cc2ccccc2OC2(CCOCC2)C1`, for which the cytotoxicity at 70.5 h was 2.98%.

With `NC(=O)CN1CCCCC1c1ccc(-n2ccnc2)nc1` (centres undefined), the cytotoxicity at 70.5 h is -3.85%.

Turning to `O=C1CO[C@H]2CN(Cc3cccnc3)C[C@H]2N1`, the cytotoxicity at 70.5 h was -1.16%.

Take `CCC(C)(C)NC(=O)Cn1nc(C)nc1-c1cccc(C)c1`: the cytotoxicity at 70.5 h was -3.94%.

`Cc1nc(CNCC2CN(C)CCO2)cs1` (centres undefined): the cytotoxicity at 70.5 h was -4.42%.

For `c1ccc(-c2nc(CCNCc3ccccn3)co2)cc1`, the cytotoxicity at 70.5 h is -1.18%.

With `C[C@H](NC(=O)c1cnc(-c2ccccc2)nc1O)C(N)=O`, the cytotoxicity at 70.5 h is -7.97%.

In the case of `Cc1cccc(S(=O)(=O)N2Cc3c(CN(C)C)nn(C)c3C2)c1`, the cytotoxicity at 70.5 h turned out to be 2.96%.

Turning to `Cc1ccc(N2CC[C@H](O)[C@@H]2Cc2cnn(C)c2)nn1`, the cytotoxicity at 70.5 h is -6.12%.

Consider `CSCCC(NC(=O)C1CC1)C(=O)N(C)Cc1ccsc1` (centres undefined), for which the cytotoxicity at 70.5 h came out at 10.7%.

With `CCCNC(=O)c1ccc(S(=O)(=O)NC2(COC)CCCC2)cc1`, the cytotoxicity at 70.5 h was -5.28%.

With `O=c1[nH]c(NCCO)nc2c1C1(CCCCC1)Cc1ccccc1-2`, the cytotoxicity at 70.5 h is -1.9%.

Consider `O=C([C@H]1COC[C@H]2CN(CC3CC3)C[C@H]21)N1CCOCC1`, for which the cytotoxicity at 70.5 h is -2.68%.

With `Cc1ccccc1OCCCC(=O)NCc1ccnc(O)c1`, the cytotoxicity at 70.5 h is -11.5%.

For `CO[C@@H]1CCC[C@@H](NC(=O)CCCn2cncn2)[C@H]1O`, the cytotoxicity at 70.5 h was -1.73%.

As for `Nc1nnc(CCCNc2ncnc3c2CCN(C(=O)C2CC2)C3)s1`, the cytotoxicity at 70.5 h was -12%.

With `Cn1cc(C2COC3(CCN(C(=O)c4ccsc4)CC3)C2)cn1` (centres undefined), the cytotoxicity at 70.5 h is -15.9%.

The values are drawn from ChEMBL document CHEMBL3507680, “University of Dundee, Gates Library screen for HepG2 cell viability”.
